# Experimental data as given in patent US20140161891A1, “COMPOSITION OF PI3K INHIBITOR AND USE THEREOF” (priority 2012, published 2014).
# Experiments:
# [1] = system: four types of lung cancer cell strains (AS2, H157, H460, H1650); test: MTT cell activity test, four cell strains together; type: cell-based; conditions: 48 hours
# Text: To measure the ionized LY, PLAG nanoparticles (SF-NPs), and SF-LY NPs, PLGA NPs are applied to four selected types of lung cancer cell strains including AS2 (PTEN null), H157 (PI3KCA, PTEN null), H460 (PI3KCA) and H1650 (PTEN null) in this preferred embodiment, and different concentrations are used to process the ionized LY or SF-LY NPs and a MTT testing method is used to measure the cell activity, and the experiment procedure is described in details as follows:
# The cells are inoculated in 96-hole culture boards (each hole has 5×10^3 cells) and cultured by 5% of CO2 at 37[…] till the next day. In four types of different cells, different doses of SF NPs, LY or SF-LY NPs are added and processed for 48 hours, and then a stock solution (with a content of 5 mg/ml in PBS) of a MTT agent at 37° C. is added to the 96-hole culture boards containing different processing drugs and wait for 4 fours before centrifuging the culture boards at 1200 rpm for 5 minutes, and after adding DMSO (capable of dissolving and precipitating products produced by the reaction of MTT and cells) for 5 minutes, the suspension is moved to a new ELISA board, and an ELISA reader (Varioskan, Thermo Electron) is used to measure the light absorption by 490 nm. […]
# PC14PE6/AS2 cells tumor = test: AS2 tumor model in nude mice, injection in the tumor; type: in vivo, Balb/c female nude mice; conditions: 1 mg/kg, injected in the tumor three times a week for two weeks
# Protocol: Balb/c female nude mice were obtained from National Laboratory Animal Center, Taiwan. Mice of 6˜8 weeks old are used. The mice are randomly divided into four groups, and situated in the same environment with controlled tempeature, humidity and 12 h-light/dark cycle, and the controlled environmental conditions follows the environmental conditions for animal breeding set forth by National Cheng Kung University. The balb/c immunodeficient mice are innoculated with PC14PE6/AS2 cells (1×10^6 cells/1004 of PBS) by the subcutaneous inoculation method. If the tumor size is approximately equal to 50-60 cubic millimeters, the experiment starts taking place. […] The tumor size is measured by a caliper and a standard tumor volume measurement method (Volume=Long Axis×Short Axis^2×0.5). […]
# After the procedure as shown in FIG. 5 takes place, the body weight of the mice is measured in every two other days to check whether there is a loss of weight. […] The survival rate is determined by the number of days when a natural death of each group of mice occurs or the tumor reaches a size of 4000 mm^3.
# [2] = system: H157 (PI3KCA, PTEN null) lung cancer cell strain; test: MTT cell activity test; type: cell-based; conditions: H157, higher dosage, 48 hours
# Text: To measure the ionized LY, PLAG nanoparticles (SF-NPs), and SF-LY NPs, PLGA NPs are applied to four selected types of lung cancer cell strains including AS2 (PTEN null), H157 (PI3KCA, PTEN null), H460 (PI3KCA) and H1650 (PTEN null) in this preferred embodiment, and different concentrations are used to process the ionized LY or SF-LY NPs and a MTT testing method is used to measure the cell activity, and the experiment procedure is described in details as follows: The cells are inoculated in 96-hole culture boards (each hole has 5×10^3 cells) and cultured by 5% of CO2 at 37[…] till the next day. In four types of different cells, different doses of SF NPs, LY or SF-LY NPs are added and processed for 48 hours, and then a stock solution (with a content of 5 mg/ml in PBS) of a MTT agent at 37° C. is added to the 96-hole culture boards containing different processing drugs and wait for 4 fours before centrifuging the culture boards at 1200 rpm for 5 minutes, and after adding DMSO (capable of dissolving and precipitating products produced by the reaction of MTT and cells) for 5 minutes, the suspension is moved to a new ELISA board, and an ELISA reader (Varioskan, Thermo Electron) is used to measure the light absorption by 490 nm.
structure (smiles),measurement,setting,value
"O=c1cc(N2CCOCC2)oc2c(-c3ccccc3)cccc12 [LY294002, 2-(4-Morpholinyl)-8-phenyl-4H-1-benzopyran-4-one]",toxicity of the cells,[1],slight toxicity
same,growth of tumors,PC14PE6/AS2 cells tumor,insufficient to reduce the growth of tumors
same,tumor size increase relative to start,PC14PE6/AS2 cells tumor; after 12˜14 days,approximately 40 times
same,toxicity to H157 cells,[2],slight toxicity
